{"source": "patent US20260102387A1", "about": "“IMMUNOSUPPRESSIVE COMPOUNDS” (UNIVERSITÄT BASEL, priority 2022, published 2026)", "key": {"[1]": {"test_system": "coronin 1", "assay": "Western blotting of coronin 1 protein levels in RBL cells", "format": "cell-based, Rat", "details": "RBL cell lines, chemiluminescence imager", "procedure": "buffer with 0.2% SDS containing protease and phosphatase inhibitors (Roche) at 4° C., followed by protein determination (BCA, Pierce) and SDS-PAGE with equal protein amounts transferred onto nitrocellulose and probed using antibodies against the indicated proteins (actin and coronin 1) followed by HRP-labeled secondary antibodies and developed using an enhanced chemi-luminescence imager (Fuji) (FIG. 3C)."}, "[2]": {"test_system": "RBL cells", "assay": "In vitro toxicity, Alamar blue assay", "format": "cell-based, Rat", "procedure": "In vitro cytotoxicity tests were performed using Alamar blue (Invitrogen, USA) following manufacturers protocol. In brief, RBL cells pretreated with coronin 1 expression inhibitor or vehicle controls were reseeded and cultured in a 96-well plate at a concentration of 1×10^4 cells/ml of culture media. Alamar blue was added to the wells and further incubated at 37° C. for 4 h. The absorbance was measured at 600 nm using a microplate reader (Synergy, BioTek Instruments). DMSO and cycloheximide served as the vehicle and positive control respectively (FIG. 5A)."}, "[3]": {"test_system": "coronin 1 promoter", "assay": "EC50 analysis for coronin 1 promoter driven GFP inhibition by flow cytometry in RBL cells", "format": "cell-based", "details": "RBL, RBL cells, 48-65 h, flow cytometry", "procedure,_shortened": "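RBL cells carrying coronin 1 promoter–GFP, mixed with CMV promoter–RFP cells, exposed to compounds 48–65 h and analyzed by flow cytometry with live/dead staining. EC50 derived from GFP inhibition, with RFP and viability as nonspecific and toxicity counter-reads; cycloheximide and DMSO as controls, relative potency normalized to a reference compound.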"}, "[4]": {"test_system": "early cytomegalovirus promoter", "assay": "Screening assay control: CMV promoter driven RFP in RBL cells (microplate reader)", "format": "cell-based", "details": "5 μg/ml, 48 h, microplate reader, DMSO = 100, read-out: RFP values (%)", "procedure": "As an unrelated promoter, the early cytomegaloviral promoter element was cloned into a promoterless Red Fluorescence Protein (RFP) expression plasmid. Rat Basophil Leukemia (RBL) cells were transfected with the plasmid, stable RFP expressing cells enriched, incubated with various compounds and were assessed for red fluorescence values. Analyzing the inhibition of an unrelated promoter (in this case, early cytomegalovirus promoter) that drove Red Fluorescence Protein (RFP) expression assessed non-specificity of the compound under analysis.\n(§1) The plasmids were independently transfected into immune cells (Rat basophil Leukemia, RBL cells) to generate green and red fluorescent RBL cells that were subsequently enriched by means of flow cytometry. These cells were then mixed in equal ratio (1:1) and incubated in a 96 well plate at 100,000 cells/well in a volume of 200 μl of phenol red free RPMI supplemented with 8% fetal calf serum, L-glutamate and antibiotics (penicillin, streptomycin) and various compounds (3 and 5 μg/ml concentrations) from available chemical libraries. At defined time points (8 h, 24 h and 48 h), the GFP and RFP fluorescence was measured using a 96 well microplate reader (Synergy, BioTek Instruments). […] Selected compounds show different levels of modulation of coronin 1 promoter driven GFP and CMV promoter driven RFP fluorescence. GFP and RFP fluorescence were analyzed with a microplate reader upon incubation with the top coronin 1 promoter inhibiting compounds. Shown are percentage of GFP reduction (left column) and percentage of RFP reduction (right column) for the compounds at 5 μg/ml concentration at 48 h. Cycloheximide (CHX) serves as positive control whereas media and DMSO serve as negative controls. […] Cells were imaged using a fluorescence microscope to validate fluorescence inhibition (FIG. 3A) and as well assess morphology and viability (in addition to GFP down regulation confirmation). In addition, quantitative Polymerase Chain Reaction (qPCR) for coronin 1 mRNA transcripts reveal reduction with compound 11 (FIG. 3B). The primers used for the qPCR on RBL cells are listed below as follows;"}, "[5]": {"test_system": "coronin 1 promoter", "assay": "Fluorescence-based screening assay: coronin 1 promoter driven GFP in RBL cells (microplate reader / microscopy)", "format": "cell-based", "details": "48 h", "procedure": "The murine coronin 1 promoter sequences of SEQ ID NO: 1-6 were each cloned into a plasmid lacking a promoter (promoterless) but containing a destabilized Green Fluorescence Protein (GFP) cassette. Rat Basophil Leukemia (RBL) cells were transfected with the plasmids, stable GFP expressing cells were enriched, incubated with various compounds and assessed for coronin 1 promoter inhibition by assessing green fluorescence values (FIG. 2).\nas §1, with “[…])” for “streptomycin) and various compounds (3 and 5 μg/ml concentrations)”"}}, "note": "Entries after “also recorded” stand apart in the source; their conditions may differ.", "data": [{"smiles": "COC(=O)C1=C(C)NC2=C(C(=O)CC(c3ccccc3OC)C2)C1c1cccc(O)c1", "note": "(stereo not drawn) [Comp. 11, methyl-4-(3-hydroxyphenyl)-7-(2-methoxyphenyl)-2-methyl-5-oxo-1,4,5,6,7,8-hexahydro-3-quinolinecarboxylate]", "values": [{"measurement": "coronin 1 depletion (Western blotting, protein level)", "setting": "[1]", "result": "~80", "unit": "%"}, {"measurement": "in vitro toxicity by Alamar blue assay", "setting": "[2]", "result": "minimal toxicity"}, {"measurement": "EC50", "setting": "[3]", "result": 1200, "unit": "nM"}, {"measurement": "activity at 5 µg/mL", "setting": "[4]", "result": 111, "unit": "%"}, {"measurement": "coronin 1 promoter driven GFP, imaged by microscope", "setting": "[5]; 10 μg/ml, confocal microscope", "result": "selectively reduce GFP values; also recorded: selective reduction"}, {"measurement": "activity at 5 µg/mL", "setting": "[5]; RBL, 5 μg/ml, microplate reader, DMSO = 100, read-out: GFP values (%)", "result": 35, "unit": "%"}]}]}
